Test results published in patent publication US12011422B2, “Synthetic antibacterial compounds and uses thereof” (priority 2021, dated 2024).
≈ marks a conversion by molar mass, not a printed value.

Columns and labels:
a strain of S. aureus = experiment: MIC determination (CLSI broth microdilution) against S. aureus; assay type: cell-based, Staphylococcus aureus; settings: 37° C., lowest concentration showing <10% bacterial growth; for MIC: Staphylococcus aureus, 18 h, read-out: Staph MIC; for Staph MIC: 18 hours
Experimental: (§1) The protocol for MIC determination is based on the Clinical & Laboratory Standards Institute (CLSI) guidelines. MICs are determined by setting up 96-well microtiter plates with serially diluted concentrations in DMSO or water ranging from 0-256 μg/mL for each compound of the invention (e.g., 256 μg/mL, 128 μg/mL, 64 μg/mL, 32 μg/mL, 16 μg/mL, 8 μg/mL, 4 μg/mL, 2 μg/mL, 1 μg/mL, etc.). The total volume in each plate is about 200 μL, with 2 μL of each serial dilution added to each well. Clinical isolates of various bacteria are obtained from the American Type Culture Collection (ATCC) and colony-resuspended for MIC testing as per CLSI guidelines. Plates are incubated at 37° C. for 18 hours, and optical density is read on a Tecan M1000 Infinite Pro plate reader at 600 nm. At least 3 replicates are done for each query compound. The MIC for each compound is the lowest compound concentration showing <10% bacterial growth.
(§2) The protocol as described in Example 2 was used to determine the minimal inhibitory concentration (MIC) of each of the following compounds against a strain of S. aureus and Pore-TolC E. coli.

Pore-TolC E. coli = experiment: MIC determination (CLSI broth microdilution) against Pore-TolC E. coli; assay type: cell-based, Escherichia coli; settings: for Pore-TolC E. coli MIC: 37° C., 18 hours, lowest concentration showing <10% bacterial growth; for MIC: Escherichia coli, 18 h, read-out: Pore-TolC E. coli MIC, Pore-TolC E. coli, 37° C., lowest concentration showing <10% bacterial growth
Experimental: as §1, §2

E. coli = experiment: Checkerboard broth microdilution (FICI) in combination with Colistin against E. coli; assay type: cell-based, Escherichia coli; settings: combined with Colistin (0-0.5 μg/mL) against E. coli; compound 0-32 μg/mL; FICI <= 0.5 is synergy
From the text: In some embodiments, a compound of the invention and another antibacterial agent are synergistic. In some embodiments, a fractional inhibitory concentration (FIC) index calculation (shown below) is used to show synergy of a compound of the invention and another antibacterial agent.
FICother antibacterial agent=[other antibacterial agent]/MICother antibacterial agent, where [other antibacterial agent] is the lowest inhibitory concentration of the other antibacterial agent in the presence of a compound of the invention.
The FIC index (FICI) is the sum of the FICcompound of the invention and FICother antibacterial agent. Drug-Drug interactions having an FICI of less than or equal to 0.5 are deemed synergistic. In some embodiments, a compound of the invention and another antibacterial agent have a FICI of about 0.5, about 0.4, about 0.3, about 0.2, about 0.1 or about 0. […]
The effect of another antibacterial agent on the activity of the compounds of the invention is evaluated. […] Fractional inhibitory concentration indices (FICIs) are determined by setting up standard checkerboard broth microdilution assays in 96-well microtiter plates with serially diluted 8 (or 10) concentrations of each drug (disclosed compounds and the other antibacterial agent). […] Plates are incubated at 37° C. for 18 hours, and optical density is read on a Tecan M1000 Infinite Pro plate reader at 600 nm. […]

Row | Compound | MIC (a strain of S. aureus) | Pore-TolC E. coli MIC (Pore-TolC E. coli) | MIC (Pore-TolC E. coli) | FICI (E. coli) | Staph MIC (a strain of S. aureus)
1 | CC(C)=CCC/C(C)=C/Cc1c(O)cc(-c2cncnc2)cc1O [MLAP-1913] | 8 µg/mL (≈ 24.7 µM) | 2 µg/mL |  |  | 
2 | CC(C)=CCC/C(C)=C/Cc1c(O)cc(C)cc1O [MLEB-1850] | 8 µg/mL (≈ 30.7 µM) |  | 2 µg/mL (≈ 7.68 µM) | < 0.5 | 
3 | CC(C)=CCC/C(C)=C/Cc1c(O)cccc1O [MLEB-1864] | 4 µg/mL (≈ 16.2 µM) |  | 1 µg/mL (≈ 4.06 µM) |  | 
4 | CC(C)=CCC/C(C)=C/Cc1c(O)cc(Br)cc1O [MLEB-1917] | 4 µg/mL (≈ 12.3 µM) | 0.5 µg/mL |  | < 0.375 | 
5 | CC(=O)c1ccc(-c2cc(O)c(C/C=C(\C)CCC=C(C)C)c(O)c2)cc1 [MLEB-1996] | 32 µg/mL (≈ 87.8 µM) |  | > 32 µg/mL |  | 
6 | CC(C)=CCC/C(C)=C/Cc1c(O)cc(-c2cccc(C)c2C)cc1O [MLEB-1997] | 2 µg/mL (≈ 5.71 µM) |  | 1 µg/mL (≈ 2.85 µM) |  | 
7 | CC(C)=CCC/C(C)=C/Cc1c(O)cc(-c2ccc(C)cc2)cc1O [MLEB-1998] | 4 µg/mL (≈ 11.9 µM) |  | 1 µg/mL (≈ 2.97 µM) |  | 
8 | CC(C)=CCC/C(C)=C/Cc1c(O)cc(-c2ccc(C(F)(F)F)cc2)cc1O [MLEB-1999] | 1 µg/mL (≈ 2.56 µM) |  | 2 µg/mL (≈ 5.12 µM) |  | 
9 | CC(C)=CCC/C(C)=C/Cc1c(O)cc(-c2ccc(Cl)cc2)cc1O [MLEB-19100] | 2 µg/mL (≈ 5.6 µM) |  | 2 µg/mL (≈ 5.6 µM) |  | 
10 | CC(C)=CCC/C(C)=C/Cc1c(O)cc(-c2cccc(C(F)(F)F)c2)cc1O [MLEB-19101] |  | 1 µg/mL |  |  | 2 µg/mL
11 | CC(C)=CCC/C(C)=C/Cc1c(O)cc(-c2cc(C(F)(F)F)ccc2F)cc1O [MLEB-19102] | 2 µg/mL (≈ 4.9 µM) |  | 2 µg/mL (≈ 4.9 µM) |  | 
12 | CC(C)=CCC/C(C)=C/Cc1c(O)cc(-c2cccc(C=O)c2)cc1O [MLEB-19108] | 8 µg/mL (≈ 22.8 µM) |  |  |  | 
13 | CC(C)=CCC/C(C)=C/Cc1c(O)cc(-c2cnc3ccccc3c2)cc1O [MLEB-19109] | 32 µg/mL (≈ 85.7 µM) |  | 32 µg/mL (≈ 85.7 µM) |  | 
14 | CC(C)=CCC/C(C)=C/Cc1c(O)cc(-c2ccc(C=O)cc2)cc1O [MLEB-19110] | 8 µg/mL (≈ 22.8 µM) |  |  |  | 
15 | CC(C)=CCC/C(C)=C/Cc1c(O)cc(-c2cccc(C(F)(F)F)c2)cc1O [MLEB-19112] | 1 µg/mL (≈ 2.56 µM) |  | 1 µg/mL (≈ 2.56 µM) |  | 
16 | CC(C)=CCC/C(C)=C/Cc1c(O)cc(-c2c(F)cccc2F)cc1O [MLEB-19114] | 1 µg/mL (≈ 2.79 µM) |  | 0.5 µg/mL (≈ 1.39 µM) |  | 
17 | CC(C)=CCC/C(C)=C/Cc1c(O)cc(-c2cccc(O)c2)cc1O [MLEB-19115] | 4 µg/mL (≈ 11.8 µM) |  | 2 µg/mL (≈ 5.91 µM) |  | 
18 | CC(C)=CCC/C(C)=C/Cc1c(O)cc(Br)cc1O [MLEB-19116] |  | 4 µg/mL |  |  | 8 µg/mL
19 | CC(C)=CCC/C(C)=C/Cc1c(O)cc(-c2cnc(N)cn2)cc1O [MLEB-19117] | 4 µg/mL (≈ 11.8 µM) |  |  |  | 
20 | CC(C)=CCC/C(C)=C/Cc1c(O)cc(-c2cc(C(F)(F)F)cc(C(F)(F)F)c2)cc1O [MLEB-19118] | 1 µg/mL (≈ 2.18 µM) |  | 8 µg/mL (≈ 17.5 µM) |  | 

Row | Compound | MIC (a strain of S. aureus) | Pore-TolC E. coli MIC (Pore-TolC E. coli) | MIC (Pore-TolC E. coli) | FICI (E. coli) | Staph MIC (a strain of S. aureus)
21 | CC(C)=CCC/C(C)=C/Cc1c(O)cc(-c2c(C)noc2C)cc1O [MLEB-19120] | 2 µg/mL (≈ 5.86 µM) |  |  |  | 
22 | CC(C)=CCC/C(C)=C/Cc1c(O)cc(-c2ccccc2Cl)cc1O [MLEB-19121] | 0.5 µg/mL (≈ 1.4 µM) |  |  |  | 
23 | CC(C)=CCC/C(C)=C/Cc1c(O)cc(-c2ccncc2)cc1O [MLEB-19128] | 4 µg/mL (≈ 12.4 µM) |  | 2 µg/mL (≈ 6.18 µM) |  | 
24 | CC(C)=CCC/C(C)=C/Cc1c(O)cc(-c2cncnc2)cc1O [MLEB-19129] |  | 8 µg/mL |  |  | 16 µg/mL
25 | CC(C)=CCC/C(C)=C/Cc1c(O)cc(-c2ccc(F)nc2)cc1O [MLEB-19130] | 2 µg/mL (≈ 5.86 µM) |  | 2 µg/mL (≈ 5.86 µM) |  | 
26 | CC(C)=CCC/C(C)=C/Cc1c(O)cc(-c2ccc(C=O)cc2F)cc1O [MLEB-19131] | 2 µg/mL (≈ 5.43 µM) |  | 2 µg/mL (≈ 5.43 µM) |  | 
27 | CC(C)=CCC/C(C)=C/Cc1c(O)cc(-c2cccc(Cl)c2)cc1O [MLEB-19132] | 1 µg/mL (≈ 2.8 µM) |  | 1 µg/mL (≈ 2.8 µM) |  | 
28 | CC(C)=CCC/C(C)=C/Cc1c(O)cc(-c2cnccc2Cl)cc1O [MLEB-19133] | 4 µg/mL (≈ 11.2 µM) |  | 2 µg/mL (≈ 5.59 µM) |  | 
29 | CC(C)=CCC/C(C)=C/Cc1c(O)cc(-c2cccc([N+](=O)[O-])c2)cc1O [MLEB-19134] | 1 µg/mL (≈ 2.72 µM) |  | 1 µg/mL (≈ 2.72 µM) |  | 
30 | CC(C)=CCC/C(C)=C/Cc1c(O)cc(-c2ccnc(Cl)c2)cc1O [MLEB-19135] | 4 µg/mL (≈ 11.2 µM) |  | 1 µg/mL (≈ 2.79 µM) |  | 
31 | CC(C)=CCC/C(C)=C/Cc1c(O)cc(-c2ccc(C#N)cc2)cc1O [MLEB-19136] | 4 µg/mL (≈ 11.5 µM) |  | 2 µg/mL (≈ 5.76 µM) |  | 
32 | CC(C)=CCC/C(C)=C/Cc1c(O)cc(-c2cccnc2Cl)cc1O [MLEB-19137] | 1 µg/mL (≈ 2.79 µM) |  | 1 µg/mL (≈ 2.79 µM) |  | 
33 | COc1ccc(-c2cc(O)c(C/C=C(\C)CCC=C(C)C)c(O)c2)cn1 [MLEB-19138] | 16 µg/mL (≈ 45.3 µM) |  |  |  | 
34 | CC(C)=CCC/C(C)=C/Cc1c(O)cc(-c2cnc(Cl)nc2)cc1O [MLEB-19139] | 16 µg/mL (≈ 44.6 µM) |  | 4 µg/mL (≈ 11.1 µM) |  | 
35 | CC(C)=CCC/C(C)=C/Cc1c(O)cc(-c2ccc(C=O)o2)cc1O [MLEB-19161] | 4 µg/mL (≈ 11.8 µM) |  | 4 µg/mL (≈ 11.8 µM) |  | 
36 | CC(C)=CCC/C(C)=C/Cc1c(O)cc(-c2ccc(C#N)s2)cc1O [MLEB-19162] | 2 µg/mL (≈ 5.66 µM) |  | 4 µg/mL (≈ 11.3 µM) |  | 
37 | COc1ccc(-c2cc(O)c(C/C=C(\C)CCC=C(C)C)c(O)c2)cc1 [MLEB-19163] | 4 µg/mL (≈ 11.3 µM) |  | 2 µg/mL (≈ 5.67 µM) |  | 
38 | CC(C)=CCC/C(C)=C/Cc1c(O)cc(-c2ccc(C=O)c(F)c2)cc1O [MLEB-19164] | 2 µg/mL (≈ 5.43 µM) |  | 4 µg/mL (≈ 10.9 µM) |  | 
39 | CC(C)=CCC/C(C)=C/Cc1c(O)cc(-c2ccc([N+](=O)[O-])cc2)cc1O [MLEB-19165] | 2 µg/mL (≈ 5.44 µM) |  | 1 µg/mL (≈ 2.72 µM) |  | 
